Test results taken from patent publication US20240150377A1, “MODULATORS OF CYSTIC FIBROSIS TRANSMEMBRANE CONDUCTANCE REGULATOR” (VERTEX PHARMACEUTICALS INCORPORATED, priority 2020, published 2024).
Like-named read-outs stand apart in the source and are kept apart here. Values belong to the compound of their own block, whether it stands above or below them.

Target: T1, CFTR (Homo sapiens, UniProt P13569, DEL508-508)
T1 construct: endogenous in cells; host or cells: primary human bronchial epithelial cells from CF subjects (F508del/MF-HBE), differentiated at air-liquid interface
T1 sequence (P13569 with tags, fused parts or gaps DEL508-508): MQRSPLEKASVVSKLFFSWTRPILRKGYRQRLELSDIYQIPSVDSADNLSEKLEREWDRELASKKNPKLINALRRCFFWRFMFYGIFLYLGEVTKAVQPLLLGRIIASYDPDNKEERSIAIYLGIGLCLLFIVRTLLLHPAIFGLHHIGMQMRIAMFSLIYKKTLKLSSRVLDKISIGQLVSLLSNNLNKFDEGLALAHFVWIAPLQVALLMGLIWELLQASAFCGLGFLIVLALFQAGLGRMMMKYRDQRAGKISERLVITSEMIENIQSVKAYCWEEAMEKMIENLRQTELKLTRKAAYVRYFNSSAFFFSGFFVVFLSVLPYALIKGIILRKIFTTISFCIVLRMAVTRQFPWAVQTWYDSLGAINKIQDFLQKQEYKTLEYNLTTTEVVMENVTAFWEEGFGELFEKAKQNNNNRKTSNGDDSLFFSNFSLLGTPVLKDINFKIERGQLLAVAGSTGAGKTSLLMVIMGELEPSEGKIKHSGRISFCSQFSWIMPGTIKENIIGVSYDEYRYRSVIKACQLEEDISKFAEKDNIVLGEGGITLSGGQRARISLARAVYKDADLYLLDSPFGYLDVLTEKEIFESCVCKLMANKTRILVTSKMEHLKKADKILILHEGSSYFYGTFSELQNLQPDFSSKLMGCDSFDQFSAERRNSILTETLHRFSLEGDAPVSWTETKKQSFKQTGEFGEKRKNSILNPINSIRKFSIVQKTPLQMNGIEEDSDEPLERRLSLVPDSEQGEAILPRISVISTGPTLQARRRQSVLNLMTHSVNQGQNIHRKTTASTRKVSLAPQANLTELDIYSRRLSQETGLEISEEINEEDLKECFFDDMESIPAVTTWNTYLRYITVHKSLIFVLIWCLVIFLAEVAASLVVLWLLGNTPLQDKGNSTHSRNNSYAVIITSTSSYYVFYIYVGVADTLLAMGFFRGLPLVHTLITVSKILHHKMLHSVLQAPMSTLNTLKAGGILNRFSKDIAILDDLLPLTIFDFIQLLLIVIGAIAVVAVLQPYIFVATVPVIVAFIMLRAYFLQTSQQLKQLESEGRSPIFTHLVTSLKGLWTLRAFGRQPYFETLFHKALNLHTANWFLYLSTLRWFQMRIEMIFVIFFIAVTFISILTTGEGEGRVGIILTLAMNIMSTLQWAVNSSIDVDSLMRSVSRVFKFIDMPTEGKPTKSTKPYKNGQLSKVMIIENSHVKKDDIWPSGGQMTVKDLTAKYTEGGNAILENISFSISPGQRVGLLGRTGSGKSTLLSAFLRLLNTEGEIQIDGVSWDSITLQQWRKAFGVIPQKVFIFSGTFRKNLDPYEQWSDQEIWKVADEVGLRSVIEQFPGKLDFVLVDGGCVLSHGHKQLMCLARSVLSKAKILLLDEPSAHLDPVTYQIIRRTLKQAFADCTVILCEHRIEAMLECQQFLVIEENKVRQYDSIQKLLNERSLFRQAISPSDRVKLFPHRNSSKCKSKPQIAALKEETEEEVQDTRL
Assay: HBE assay: Ussing chamber assay of CFTR-mediated short-circuit currents
Format: cell-based
Details: for activation at 10 µM: read-out: HBE Activity at 10 μM (%); for EC50: read-out: HBE EC50
How it was run: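 CFTR-mediated Isc (μA/cm²) equals the peak response to apical 20 μM forskolin minus the residual after a 20 μM each BPO/GlyH-101/CFTR inhibitor 172 cocktail, recorded in Ussing chambers at Vhold 0 mV, 37 °C, pH 7.4, with 30 μM apical amiloride. Cells were F508del/MF HBE cultures preincubated 18-24 h with corrector (concentration range or 10 μM) plus 1 μM ivacaftor in 20% human serum.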

[1] = Table 11, read-out: HBE Max Activity (%)
[2] = Table 12, read-out: HBE Max Activity (%)
[3] = Table 10, read-out: HBE Max activity (%)
[4] = Table 13, read-out: HBE Max Activity (%)
[5] = HBE assay, read-out: HBE Max activity (%)

SMILES: Cc1cccc(C)c1-c1cc2nc(n1)NS(=O)(=O)c1cccc(c1)C(=O)N(CC(=O)N(C)CCN(C)C)[C@H](CC(C)(C)C)CO2 [Compound 224]
- activation at 10 µM (Table 12, at 10 μM): > 600%

SMILES: Cc1cccc(C)c1-c1cc2nc(n1)NS(=O)(=O)c1cccc(c1)C(=O)N(Cc1ncc(N3C[C@H](C)C[C@@H](C)C3)cn1)[C@H](CC(C)(C)C)CO2 [Compound 716]
- EC50 (Table 11): 3000 to 30000 nM
- Emax [1]: > 60%

SMILES: Cc1cccc(C)c1-c1cc2nc(n1)NS(=O)(=O)c1cccc(c1)C(=O)N(Cc1ncc(N3CC4(C3)CC(C)(C)C4)cn1)[C@H](CC(C)(C)C)CO2 [Compound 869]
- EC50 (Table 13): < 1000 nM
- Emax [4]: > 60%

SMILES: Cc1cccc(C)c1-c1cc2nc(n1)NS(=O)(=O)c1cccc(c1)C(=O)N(CC(=O)NC1CCCC(C)(C)C1)[C@H](CC(C)(C)C)CO2 (stereo partly shown) [Compound 175]
- activation at 10 µM (Table 13, at 10 μM): > 600%

SMILES: Cc1cccc(C)c1-c1cc2nc(n1)NS(=O)(=O)c1cccc(c1)C(=O)N(CC1OCCCC1(C)C)[C@H](CC(C)(C)C)CO2 (single isomer, unassigned) [Compound 35]
- activation at 10 µM (Table 11, at 10 μM): > 60%

SMILES: Cc1cccc(C)c1-c1cc2nc(n1)NS(=O)(=O)c1cccc(c1)C(=O)N(Cc1nccc(N(C)C3CCC(C)(C)CC3)n1)[C@H](CC(C)(C)C)CO2 [Compound 435]
- EC50 (Table 13): < 1000 nM
- Emax [4]: > 60%

SMILES: Cc1ccc(C)c(-c2cc3nc(n2)NS(=O)(=O)c2cccc(c2)C(=O)N(Cc2ccc(N4CCCCC4)cn2)[C@H](CC(C)(C)C)CO3)c1C [Compound 902]
- Emax [1]: < 30%

SMILES: Cc1cccc(C)c1-c1cc2nc(n1)NS(=O)(=O)c1cccc(c1)C(=O)N(CC(=O)N1CCCC3(CCC3)C1)[C@H](CC(C)(C)C)CO2 [Compound 169]
- activation at 10 µM (Table 13, at 10 μM): > 600%

SMILES: Cc1cccc(C)c1-c1cc2nc(n1)NS(=O)(=O)c1cccc(c1)C(=O)N(Cc1ncc(OC3CCCC3)cn1)[C@H](CC(C)(C)C)CO2 [Compound 566]
- EC50 (Table 12): < 1000 nM
- Emax [2]: > 60%

SMILES: Cc1cccc(C)c1-c1cc2nc(n1)NS(=O)(=O)c1cccc(c1)C(=O)N(Cc1ncc(OC3CCC3)cn1)[C@H](CCC(C)(C)C)CO2 [Compound 1486]
- activation at 10 µM (HBE assay, 10 μM): > 60%

SMILES: Cc1cccc(C)c1-c1cc2nc(n1)NS(=O)(=O)c1cccc(c1)C(=O)N(CC1CCN(c3ccccn3)CC1)[C@H](CC(C)(C)C)CO2 [Compound 493]
- EC50 (Table 10): < 1000 nM
- Emax [3]: > 60%

SMILES: Cc1cccc(C)c1-c1cc2nc(n1)NS(=O)(=O)c1cccc(c1)C(=O)N(Cc1ncc(N3CCC4(CCC4)C3)cn1)[C@H](CC(C)(C)C)CO2 [Compound 612]
- EC50 (Table 11): < 1000 nM
- Emax [1]: > 60%

SMILES: Cc1cccc(C)c1-c1cc2nc(n1)NS(=O)(=O)c1cccc(c1)C(=O)N(Cc1ncc(OC(C)C)cn1)C(C(C)C(C)C)CO2 (stereo not shown) [Compound 1466]
- activation at 10 µM (HBE assay, 10 μM): > 60%

SMILES: Cc1cccc(C)c1C1CC2NC(N1)NS(=O)(=O)C1CCCC(C1)C(=O)N(Cc1cccc(-c3c[nH]nc3C(C)(C)C)c1)[C@H](CC(C)(C)C)CO2 (stereo partly shown) [Compound 309]
- Emax [3]: > 60%

SMILES: Cc1cccc(C)c1-c1cc2nc(n1)NS(=O)(=O)c1cccc(c1)C(=O)N(Cc1ncc(N3CC(C)(C)CC3=O)cn1)[C@H](CC(C)(C)C)CO2 [Compound 1365]
- EC50 (HBE assay): < 1000 nM
- Emax [5]: > 60%

SMILES: Cc1cccc(C)c1-c1cc2nc(n1)NS(=O)(=O)c1cccc(c1)C(=O)N(Cc1ncc(OC3CCCCC3)cn1)[C@H](CC(C)(C)C)CO2 [Compound 561]
- activation at 10 µM (Table 12, at 10 μM): > 600%
- EC50 (Table 12): < 1000 nM
- Emax [2]: > 60%

SMILES: Cc1cccc(C)c1-c1cc2nc(n1)NS(=O)(=O)c1cccc(c1)C(=O)N(Cc1ncc(CC(C)C)cn1)[C@H](CC(C)C)CO2 [Compound 574]
- EC50 (Table 12): < 1000 nM
- Emax [2]: > 60%

SMILES: Cc1cccc(C)c1-c1cc2nc(n1)NS(=O)(=O)c1cccc(c1)C(=O)N(Cc1ncc(OC3CC(C)(C)C3)cn1)[C@H](CC(C)C)CO2 [Compound 1423]
- EC50 (HBE assay): 1000 to 3000 nM
- Emax [5]: > 60%

SMILES: Cc1cccc(C)c1-c1cc2nc(n1)NS(=O)(=O)c1cccc(c1)C(=O)C(Cc1ccc(C3CCCOC3)cn1)[C@H](CC(C)(C)C)CO2 (stereo partly shown) [Compound 1065]
- EC50 (Table 12): < 1000 nM
- Emax [2]: > 60%

SMILES: Cc1cccc(C)c1-c1cc2nc(n1)NS(=O)(=O)c1cccc(c1)C(=O)N(Cc1ncc(N3CCC4(CC4)C3)cn1)[C@H](CC(C)(C)C)CO2 [Compound 1504]
- activation at 10 µM (HBE assay, 10 μM): > 60%

SMILES: Cc1cccc(C)c1-c1cc2nc(n1)NS(=O)(=O)c1cccc(c1)C(=O)N(CC1CC(N3CC(C)OC(C)C3)C1)[C@H](CC(C)(C)C)CO2 (stereo partly drawn) [Compound 65, (11R)-12-[[3-(2,6-Dimethylmorpholin-4-yl)cyclobutyl]methyl]-6-(2,6-dimethylphenyl)-11-(2,2-dimethylpropyl)-2,2-dioxo-9-oxa-2λ^6-thia-3,5,12,19-tetrazatricyclo[12.3.1.14,8]nonadeca-1(18),4(19),5,7,14,16-hexaen-13-one]
- activation at 10 µM: > 60%

SMILES: Cc1cccc(C)c1-c1cc2nc(n1)NS(=O)(=O)c1cccc(c1)C(=O)N(Cc1ncc(OC3CCC3)cn1)[C@H](CC(C)(C)F)CO2 [Compound 1509]
- activation at 10 µM (HBE assay, 10 μM): > 60%

Other lines, results leading:

- activation at 10 µM (Table 12, at 10 μM): > 600%
SMILES: Cc1cccc(C)c1-c1cc2nc(n1)NS(=O)(=O)c1cccc(c1)C(=O)N(Cc1cn(C(C)C)cn1)[C@H](CC(C)(C)C)CO2 [Compound 232]

- EC50 (Table 11): < 1000 nM
- Emax [1]: > 60%
SMILES: Cc1cccc(C)c1-c1cc2nc(n1)NS(=O)(=O)c1cccc(c1)C(=O)N(Cc1cccc(C3=CCCC3)n1)[C@H](CC(C)(C)C)CO2 [Compound 621]

- activation at 10 µM (Table 12, at 10 μM): > 600%
SMILES: Cc1cccc(C)c1-c1cc2nc(n1)NS(=O)(=O)c1cccc(c1)C(=O)N(Cc1cncc(N3CCCC3(C)C)c1)[C@H](CC(C)(C)C)CO2 [Compound 282]

- EC50 (Table 12): < 1000 nM
- Emax [2]: > 60%
SMILES: CC(C)=Cc1nccc(CN2C(=O)c3cccc(c3)S(=O)(=O)Nc3nc(cc(-c4c(C)cccc4C)n3)OC[C@H]2CC(C)(C)C)n1 [Compound 596]

- EC50 (Table 10): < 1000 nM
- Emax [3]: > 60%
SMILES: Cc1cccc(C)c1-c1cc2nc(n1)NS(=O)(=O)c1cccc(c1)C(=O)N(Cc1ccc(OCC(N)=O)cc1)[C@H](CC(C)(C)C)CO2 [Compound 780]

- activation at 10 µM (Table 13, at 10 μM): > 600%
SMILES: Cc1cccc(C)c1-c1cc2nc(n1)NS(=O)(=O)c1cccc(c1)C(=O)N(Cc1nc(C(C)(C)C)no1)[C@H](CC(C)(C)C)CO2 [Compound 1131]

- EC50 (Table 10): < 1000 nM
- Emax [3]: > 60%
SMILES: COCCN(C)c1cccc(CN2C(=O)c3cccc(c3)S(=O)(=O)Nc3nc(cc(-c4c(C)cccc4C)n3)OC[C@H]2CC(C)(C)C)n1 [Compound 488]

- EC50 (Table 13): < 1000 nM
- Emax [4]: > 60%
SMILES: Cc1cc(N2CCC(C)(C)C2)cnc1CN1C(=O)c2cccc(c2)S(=O)(=O)Nc2nc(cc(-c3c(C)cccc3C)n2)OC[C@H]1CC(C)(C)C [Compound 1135]

- EC50 (Table 10): < 1000 nM
- Emax [3]: > 60%
SMILES: Cc1cccc(C)c1-c1cc2nc(n1)NS(=O)(=O)c1cccc(c1)C(=O)N(Cc1ccc(-c3cnc(N)nc3)cc1)[C@H](CC(C)(C)C)CO2 [Compound 782]

- EC50 (Table 11): < 1000 nM
- Emax [1]: > 60%
SMILES: Cc1cccc(C)c1-c1cc2nc(n1)NS(=O)(=O)c1cccc(c1)C(=O)N(Cc1cc(C(C)(C)O)ccn1)[C@H](CC(C)(C)C)CO2 [Compound 812]

- EC50 (Table 11): < 1000 nM
- Emax [1]: > 60%
SMILES: Cc1cccc(C)c1-c1cc2nc(n1)NS(=O)(=O)c1cccc(c1)C(=O)N(Cc1cccc(C(C)C)n1)[C@H](CC(C)(C)C)CO2 [Compound 729]

- EC50 (Table 10): < 1000 nM
- Emax [3]: > 60%
SMILES: Cc1cccc(C)c1-c1cc2nc(n1)NS(=O)(=O)c1cccc(c1)C(=O)N(Cc1cccc(N3CCOCC3)n1)[C@H](CC(C)(C)C)CO2 [Compound 384]

- EC50 (HBE assay): < 1000 nM
- Emax [5]: > 60%
SMILES: Cc1cccc(C)c1-c1cc2nc(n1)NS(=O)(=O)c1cccc(c1)C(=O)N(Cc1coc(N3CCOCC3)n1)[C@H](CC(C)(C)C)CO2 [Compound 1358]

- activation at 10 µM (Table 11, at 10 μM): > 60%
SMILES: Cc1cccc(C)c1-c1cc2nc(n1)NS(=O)(=O)c1cccc(c1)C(=O)N(CC1CCC(C)(C)OC1)[C@H](CC(C)(C)C)CO2 (single isomer, unassigned) [Compound 31]

- activation at 10 µM (HBE assay, 10 μM): > 60%
SMILES: Cc1cccc(C)c1-c1cc2nc(n1)NS(=O)(=O)c1cccc(c1)C(=O)N(Cc1cccc(N(C)C(C)C(C)(C)C)n1)[C@H](CC(C)(C)C)CO2 (stereo partly shown) [Compound 1427]

- EC50 (HBE assay): < 1000 nM
- Emax [5]: > 60%
SMILES: Cc1cccc(C)c1-c1cc2nc(n1)NS(=O)(=O)c1cccc(c1)C(=O)N(Cc1cccc(N(C)CC3(C)CC3)n1)[C@H](CC(C)(C)C)CO2 [Compound 1354]

- activation at 10 µM (Table 13, at 10 μM): > 600%
SMILES: Cc1cccc(C)c1-c1cc2nc(n1)NS(=O)(=O)c1cccc(c1)C(=O)N(Cc1cc(OC(C)C)ccn1)[C@H](CC(C)(C)C)CO2 [Compound 1114]

- EC50 (Table 12): < 1000 nM
- Emax [2]: > 60%
SMILES: Cc1cccc(C)c1-c1cc2nc(n1)NS(=O)(=O)c1cccc(c1)C(=O)N(Cc1nc(C(C)C)cs1)[C@H](CC(C)(C)C)CO2 [Compound 704]

- EC50 (HBE assay): < 1000 nM
- Emax [5]: > 60%
SMILES: Cc1cccc(C)c1-c1cc2nc(n1)NS(=O)(=O)c1cccc(c1)C(=O)N(Cc1cccc(NC3CCOC3)n1)[C@H](CC(C)(C)C)CO2 (stereo partly shown) [Compound 1352]

- EC50 (Table 11): < 1000 nM
- Emax [1]: > 60%
SMILES: Cc1cccc(C)c1-c1cc2nc(n1)NS(=O)(=O)c1cccc(c1)C(=O)N(Cc1cccc(C3CCC3)n1)[C@H](CC(C)(C)C)CO2 [Compound 626]

- EC50 (Table 11): < 1000 nM
- Emax [1]: > 60%
SMILES: Cc1ccnc(CN2C(=O)c3cccc(c3)S(=O)(=O)Nc3nc(cc(-c4c(C)cccc4C)n3)OC[C@H]2CC(C)(C)C)c1 [Compound 1070]
